A short description of series [1]: Diffusion of Atrazine and Mesotrione from units submerged in free water. Particulars: over 5 days. Type of series: physicochemical. The protocol: A unit (each from the table above) was placed within a 500 cc vial. 250 cc of DI water were added. The vial was cover with punched Parafilm and stored at room temperature. After 24 hours, the free water, which didn't absorbed by the polymer, were drained and stored in a cold room. DI water at the same volume was refilled into the vial. Repeated this stage after 72 and 120 hours.

In the next series the test system is Solanum Nigrum. Put plainly: Weed development and mortality (Example 11). The class given is in vivo. Particulars: for Weed control, unit versus spray practice: damage of weed buds from 13 days to end of trial. The source says: Weeds: 30 seeds of Solanum Nigrum per pot.
Analysis of weeds parameters: Fresh biomass, size and total area covered by weeds per pot.

Series [2] can be described thus: Azoxystrobin content in pepper leaves (Example 12). The class given is in vivo. The protocol:
Planting/harvesting dates: (47 days). Following harvest, unit samples from all treatments were excavated gently and were quantified for roots penetration and total root length. A core from the middle of each sample was cut and analyzed for root content. Root count in both vertical and horizontal axes and total volume were used estimating the root total length within a single unit. Total leaves biomass of each plant was analyzed to Azoxystrobin content in qualified laboratory (Bactochem, Israel).
Azoxystrobin application through the soil was studied as part of its registration process. The concentration in pepper leaves was measured over time from application. Similar Azoxystrobin concentrations in leaves were found in both commercial and current trial (tenth of ppm). […] This significant difference may inform the potential of the unit for protecting the plant for longer periods compared to current application practice.

For series [3] the following is noted: soil application studied as part of registration process, 28 DAP; cited from earlier work.
The conditions of series [4]: Example 12; cited from earlier work.
A further series concerns maize. As to the kind of experiment: Crop selectivity (Example 11). Type of series: in vivo. The source says: Soil: 10 liter pots (surface area of 0.045 m^2) filled with Rehovot Sand (High sand fraction, low OM, low EC, low CEC, and High pH).
Crops: 6 maize plants per pot following herbicide application (high demand to fertilizers with selectivity).
Analysis of crop development parameters: Height and fresh biomass.

Take `CCNc1nc(Cl)nc(NC(C)C)n1` [Atrazine]: the “Dose released from the new units to the surrounding free water” value in series [1] is on record as “up to 10%”. Moreover, the “Weed control, unit versus spray practice” value in the series on Solanum Nigrum is “no difference between unit and spray practices”.
As for `CO/C=C(/C(=O)OC)c1ccccc1Oc1cc(Oc2ccccc2C#N)ncn1` [Azoxystrobin], the “Azoxystrobin concentration in unit leaves” value in series [2] (47 DAP) is “effective concentrations were found”. Also, in series [2] (DAP 47), the “Difference in Azoxystrobin concentration in leaves between fully fertilized and no fertilizer” value is given as 5 fold. The “Azoxystrobin concentration in leaves” value in series [2] (pepper, unit and commercial trial) is listed as “tenth of ppm”. For the same compound, in series [3], the “Azoxystrobin residue in commercial leaves” value is “no residue were found”. Moreover, the DT50 in series [4] is 100 to 150 days.
`CS(=O)(=O)c1ccc(C(=O)C2C(=O)CCCC2=O)c([N+](=O)[O-])c1` [Mesotrione]: in series [1], the “Dose released from the new units to the surrounding free water” value is given as “up to 25%”. Also, the “Crop selectivity (crop height, color, final fresh biomass)” value with maize (double and fourfold doses) is “yellowish and slight shorter (fourfold only), yet no difference was found in fresh biomass”; with maize (standard dose), “selective”. In addition, the “Weed control, unit versus spray practice” value with Solanum Nigrum was “significant advantages of unit over spray”. Moreover, the “Weed control, half application rate in unit versus full spray rate” value in the series on Solanum Nigrum (in vivo) is recorded as “more effective than full spray rate”.

The values are drawn from patent publication US20170196175A1, “COMPOSITIONS FOR THE DELIVERY OF AGROCHEMICALS TO THE ROOTS OF A PLANT” (ADAMA MAKHTESHIM LTD., priority 2014, published 2017).
